# Molecular target: T1, integrin α4β7 on α4β7+ memory T helper cells (Homo sapiens, UniProt P13612+P26010)
# T1 construct: endogenous in cells
# T1 sequence (P13612 34-1032): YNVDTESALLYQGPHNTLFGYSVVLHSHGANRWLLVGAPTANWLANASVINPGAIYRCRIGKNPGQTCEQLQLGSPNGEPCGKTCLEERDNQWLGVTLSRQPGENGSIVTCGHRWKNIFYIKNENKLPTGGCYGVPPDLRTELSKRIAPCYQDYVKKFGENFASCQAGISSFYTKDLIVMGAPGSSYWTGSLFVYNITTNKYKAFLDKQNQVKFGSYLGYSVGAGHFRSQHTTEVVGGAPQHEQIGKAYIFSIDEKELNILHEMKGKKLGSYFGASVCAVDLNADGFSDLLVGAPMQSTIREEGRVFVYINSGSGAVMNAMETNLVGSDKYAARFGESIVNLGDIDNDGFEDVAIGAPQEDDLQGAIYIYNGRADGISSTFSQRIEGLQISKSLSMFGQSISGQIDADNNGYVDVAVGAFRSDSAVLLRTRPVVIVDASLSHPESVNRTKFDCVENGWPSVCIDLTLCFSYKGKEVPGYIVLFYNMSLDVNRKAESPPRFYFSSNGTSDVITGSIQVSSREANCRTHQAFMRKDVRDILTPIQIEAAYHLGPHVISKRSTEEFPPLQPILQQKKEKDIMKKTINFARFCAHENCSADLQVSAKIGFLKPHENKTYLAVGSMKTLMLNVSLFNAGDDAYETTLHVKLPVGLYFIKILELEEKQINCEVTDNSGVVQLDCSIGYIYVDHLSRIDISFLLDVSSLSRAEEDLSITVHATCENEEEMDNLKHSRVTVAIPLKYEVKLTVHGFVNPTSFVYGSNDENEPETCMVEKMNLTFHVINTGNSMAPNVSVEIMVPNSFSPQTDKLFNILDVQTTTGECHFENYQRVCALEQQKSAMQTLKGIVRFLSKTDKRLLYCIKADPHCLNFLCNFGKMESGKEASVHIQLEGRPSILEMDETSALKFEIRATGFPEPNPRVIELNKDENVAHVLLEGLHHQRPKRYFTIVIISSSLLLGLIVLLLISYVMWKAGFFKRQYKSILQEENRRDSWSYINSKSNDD
# T1 sequence (P26010 20-798): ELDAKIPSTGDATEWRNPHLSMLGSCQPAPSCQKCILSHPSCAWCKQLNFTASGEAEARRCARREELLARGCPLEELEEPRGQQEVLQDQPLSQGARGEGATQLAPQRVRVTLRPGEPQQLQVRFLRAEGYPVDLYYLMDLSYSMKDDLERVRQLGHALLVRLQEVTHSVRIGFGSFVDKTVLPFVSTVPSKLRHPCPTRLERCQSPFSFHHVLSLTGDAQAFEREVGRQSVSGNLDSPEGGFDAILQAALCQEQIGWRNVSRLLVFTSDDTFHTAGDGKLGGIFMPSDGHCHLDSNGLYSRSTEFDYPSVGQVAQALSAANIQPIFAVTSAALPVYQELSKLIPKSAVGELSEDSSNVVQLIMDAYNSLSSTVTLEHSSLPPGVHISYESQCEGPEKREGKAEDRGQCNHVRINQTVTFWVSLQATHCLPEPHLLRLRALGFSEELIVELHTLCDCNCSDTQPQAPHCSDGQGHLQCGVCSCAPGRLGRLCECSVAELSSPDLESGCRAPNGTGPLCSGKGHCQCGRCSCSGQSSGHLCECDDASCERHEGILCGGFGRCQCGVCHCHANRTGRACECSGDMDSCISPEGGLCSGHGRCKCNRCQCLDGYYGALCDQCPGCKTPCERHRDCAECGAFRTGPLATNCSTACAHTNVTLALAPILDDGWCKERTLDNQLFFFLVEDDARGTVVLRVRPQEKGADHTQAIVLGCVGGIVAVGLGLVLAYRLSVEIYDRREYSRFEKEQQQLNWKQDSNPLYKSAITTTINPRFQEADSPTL
# Assay: MAdCAM-1 competition / receptor occupancy assay in human whole blood, α4β7-positive Th memory cells
# Format: cell-based
# Conditions: human whole blood, 1000 nM; read-out: receptor occupancy at maximum concentration
# Method: Analyte Competition Assay in CD4+ Integrin α4+β7-Lo Memory T Cells
# Receptor occupancy in primary cells was determined by measuring the amount of biotinylated human recombinant MAdCAM-1-FC or human recombinant VCAM-1-Fc bound to selected cell populations using flow cytometry. Human recombinant MAdCAM-1-FC or human recombinant VCAM-1-FC (R&D systems) were biotinylated using commercially available reagents and protocol (Pierce).
# Whole blood was collected from human donors in sodium heparin tubes. […] Cells were washed twice with 1 mL of 1X DPBS calcium magnesium free (CMF) (ThermoFisher Scientific) and resuspended in 100 microL of DPBS CMF.
# Biotinylated human recombinant MAdCAM-1-Fc or VCAM-1-Fc were added at saturating concentration and incubated at room temperature for 1 hour. […] Cells were washed with 1 mL stain buffer-FBS (BD Biosciences) and resuspended in 100 μl stain Buffer-FBS (BD Biosciences) containing 4 mM MnCl2. […] Cells were then washed with 1 mL stain buffer-FBS and resuspended in […] stain buffer-FBS. The cells were incubated in the dark for 30 minutes at room temperature with 1 ul Streptavidin APC (Biolegend 0.2 mg/ml) and a panel of antibodies for the detection of memory T helper a4b7-positive cells subset. And amount of 5.0 ul each of the following antibodies were used; CD45 FITC (BioLegend 200 ug/ml), CD29 APC Cy7 (BioLegend 100 ug/ml), Integrin beta7 PE, (BioLegend concentration 50 μg/mL), CD49d V421 (BioLegend 50 μg/mL), CD3 V510 (BioLegend 30 μg/mL), CD4 PECy7 (BioLegend 100 μg/mL), CD45RO PerCP, BioLegend 200 μg/mL). The cells were then washed with stain-buffer-FBS and resuspended in 150 microL stain buffer-FBS for acquisition on the flow cytometer (BD FACSCanto™ flow cytometer and BDFACSDiva™ software). FACS data was acquire by electronic gating on the basis of forward versus side scatter, The cytometer was set to collect 20,000 events in each tube. Cell population were determined using the following markers, CD45+, CD3+, CD4+, CD45RO+, CD49d+, integrin b7, biotinylated ligands.
# Compound receptor occupancy was defined as the decrease in the number of integrin β7+ or integrin β7-lo cells binding biotinylated rhMAdCAM-1 or rhVCAM-1, respectively.
# Receptor occupancy was calculated with the following equation: 100−((% ligand-positive cells with compound/% ligand-positive cells DMSO)*100) In Vivo T Lymphocyte Trafficking Analysis in Mouse Model of Colitis
row,SMILES,receptor occupancy at 1 µM [%]
1,CC(C)C[C@@H]1NC(=O)C[C@H](CCCCN)N(C)C(=O)[C@H](CCCCN)NC(=O)[C@@H]2CCCN2[C@H](C(=O)NC(C)(C)C)[C@H](C)NC(=O)[C@H]([C@@H](C)O)NC(=O)[C@H](CC(=O)O)NC1=O [Compound 456],15

# Same assay, conditions: human whole blood, FIG. 7; read-out: EC50, competition with saturating amount of MAdCAM
row,SMILES,EC50 [nM]
1,CC(C)C[C@@H]1NC(=O)c2ccc(-c3ccc(N4CCN(C(=O)COCC(=O)N5CCN(c6ccc(-c7ccc8cc7CNC(=O)[C@@H]7CCCN7[C@H](C(=O)NC(C)(C)C)[C@H](C)NC(=O)[C@H]([C@@H](C)O)NC(=O)[C@H](CC(=O)O)NC(=O)[C@H](CC(C)C)NC8=O)cc6)CC5)CC4)cc3)c(c2)CNC(=O)[C@@H]2CCCN2[C@H](C(=O)NC(C)(C)C)[C@H](C)NC(=O)[C@H]([C@@H](C)O)NC(=O)[C@H](CC(=O)O)NC1=O [Compound 390],90

# Same assay, conditions: human whole blood, inhibition of MAdCAM-1 binding to α4β7-positive Th memory cells, FACS; read-out: MADCAM FACS a4b7 Th mem
row,SMILES,IC50 [nM]
1,CC(C)C[C@@H]1NC(=O)C[C@H](CCCCN)N(C)C(=O)[C@H](CCCCN)NC(=O)[C@@H]2CCCN2[C@H](C(=O)NC(C)(C)C)[C@H](C)NC(=O)[C@H]([C@@H](C)O)NC(=O)[C@H](CC(=O)O)NC1=O [Compound 456],1000

# Same assay, conditions: human whole blood, inhibition of MAdCAM-1 binding to α4β7-positive Th memory cells, FACS; read-out: MADCAM FACS α4β7 Th mem
row,SMILES,IC50 [nM]
1,CC(C)C[C@@H]1NC(=O)c2ccc(-c3ccc(N4CCN(C(=O)COCC(=O)N5CCN(c6ccc(-c7ccc8cc7CNC(=O)[C@@H]7CCCN7[C@H](C(=O)NC(C)(C)C)[C@H](C)NC(=O)[C@H]([C@@H](C)O)NC(=O)[C@H](CC(=O)O)NC(=O)[C@H](CC(C)C)NC8=O)cc6)CC5)CC4)cc3)c(c2)CNC(=O)[C@@H]2CCCN2[C@H](C(=O)NC(C)(C)C)[C@H](C)NC(=O)[C@H]([C@@H](C)O)NC(=O)[C@H](CC(=O)O)NC1=O [Compound 390],90
2,CC(C)C[C@@H]1NC(=O)c2ccc(-c3ccc(N4CCN(C(=O)CCC(=O)N5CCN(c6ccc(-c7ccc8cc7CNC(=O)[C@@H]7CCCN7[C@H](C(=O)NC(C)(C)C)[C@H](C)NC(=O)[C@H]([C@@H](C)O)NC(=O)[C@H](CC(=O)O)NC(=O)[C@H](CC(C)C)NC8=O)cc6)CC5)CC4)cc3)c(c2)CNC(=O)[C@@H]2CCCN2[C@H](C(=O)NC(C)(C)C)[C@H](C)NC(=O)[C@H]([C@@H](C)O)NC(=O)[C@H](CC(=O)O)NC1=O [Compound 484],45
3,CC(C)C[C@@H]1NC(=O)C[C@H](CCCCN)N(C)C(=O)[C@H](CCCCNC(=O)CCCCCCCC(=O)NCCCC[C@@H]2NC(=O)[C@@H]3CCCN3[C@H](C(=O)NC(C)(C)C)[C@H](C)NC(=O)[C@H]([C@@H](C)O)NC(=O)[C@H](CC(=O)O)NC(=O)[C@H](CC(C)C)NC(=O)C[C@H](CCCCN)N(C)C2=O)NC(=O)[C@@H]2CCCN2[C@H](C(=O)NC(C)(C)C)[C@H](C)NC(=O)[C@H]([C@@H](C)O)NC(=O)[C@H](CC(=O)O)NC1=O [Compound 533],46
4,CC(C)C[C@@H]1NC(=O)c2ccc(-c3ccc(N4CCN(CCC(=O)N5CCN(c6ccc(-c7ccc8cc7CNC(=O)[C@@H]7CCCN7[C@H](C(=O)NC(C)(C)C)[C@H](C)NC(=O)[C@H]([C@@H](C)O)NC(=O)[C@H](CC(=O)O)NC(=O)[C@H](CC(C)C)NC8=O)cc6)CC5)CC4)cc3)c(c2)CNC(=O)[C@@H]2CCCN2[C@H](C(=O)NC(C)(C)C)[C@H](C)NC(=O)[C@H]([C@@H](C)O)NC(=O)[C@H](CC(=O)O)NC1=O [Compound 482],30
5,CC(C)C[C@@H]1NC(=O)C[C@H](CCCCN)N(C)C(=O)[C@H](CCCCNC(=O)CCCCCC(=O)NCCCC[C@@H]2NC(=O)[C@@H]3CCCN3[C@H](C(=O)NC(C)(C)C)[C@H](C)NC(=O)[C@H]([C@@H](C)O)NC(=O)[C@H](CC(=O)O)NC(=O)[C@H](CC(C)C)NC(=O)C[C@H](CCCCN)N(C)C2=O)NC(=O)[C@@H]2CCCN2[C@H](C(=O)NC(C)(C)C)[C@H](C)NC(=O)[C@H]([C@@H](C)O)NC(=O)[C@H](CC(=O)O)NC1=O [Compound 532],57
6,CC(C)C[C@@H]1NC(=O)c2ccc(-c3ccc(N4CCN(C(=O)C56CC7CC(C5)CC(C(=O)N5CCN(c8ccc(-c9ccc%10cc9CNC(=O)[C@@H]9CCCN9[C@H](C(=O)NC(C)(C)C)[C@H](C)NC(=O)[C@H]([C@@H](C)O)NC(=O)[C@H](CC(=O)O)NC(=O)[C@H](CC(C)C)NC%10=O)cc8)CC5)(C7)C6)CC4)cc3)c(c2)CNC(=O)[C@@H]2CCCN2[C@H](C(=O)NC(C)(C)C)[C@H](C)NC(=O)[C@H]([C@@H](C)O)NC(=O)[C@H](CC(=O)O)NC1=O [Compound 460],107
7,CC(C)C[C@@H]1NC(=O)c2ccc(-c3ccc(N4CCN(CC(=O)N5CCN(c6ccc(-c7ccc8cc7CNC(=O)[C@@H]7CCCN7[C@H](C(=O)NC(C)(C)C)[C@H](C)NC(=O)[C@H]([C@@H](C)O)NC(=O)[C@H](CC(=O)O)NC(=O)[C@H](CC(C)C)NC8=O)cc6)CC5)CC4)cc3)c(c2)CNC(=O)[C@@H]2CCCN2[C@H](C(=O)NC(C)(C)C)[C@H](C)NC(=O)[C@H]([C@@H](C)O)NC(=O)[C@H](CC(=O)O)NC1=O [Compound 481],67
8,CC(C)C[C@@H]1NC(=O)C[C@H](CCCCN)N(C)C(=O)[C@H](CCCCNC(=O)CCOCCOCCOCCOCCOCCOCCOCCC(=O)NCCCC[C@@H]2NC(=O)[C@@H]3CCCN3[C@H](C(=O)NC(C)(C)C)[C@H](C)NC(=O)[C@H]([C@@H](C)O)NC(=O)[C@H](CC(=O)O)NC(=O)[C@H](CC(C)C)NC(=O)C[C@H](CCCCN)N(C)C2=O)NC(=O)[C@@H]2CCCN2[C@H](C(=O)NC(C)(C)C)[C@H](C)NC(=O)[C@H]([C@@H](C)O)NC(=O)[C@H](CC(=O)O)NC1=O [Compound 536],75
9,CC(C)C[C@@H]1NC(=O)c2ccc(-c3ccc(N4CCN(C(=O)c5ccc(-c6cccc(C(=O)N7CCN(c8ccc(-c9ccc%10cc9CNC(=O)[C@@H]9CCCN9[C@H](C(=O)NC(C)(C)C)[C@H](C)NC(=O)[C@H]([C@@H](C)O)NC(=O)[C@H](CC(=O)O)NC(=O)[C@H](CC(C)C)NC%10=O)cc8)CC7)n6)nc5)CC4)cc3)c(c2)CNC(=O)[C@@H]2CCCN2[C@H](C(=O)NC(C)(C)C)[C@H](C)NC(=O)[C@H]([C@@H](C)O)NC(=O)[C@H](CC(=O)O)NC1=O [Compound 466],164
10,CC(C)C[C@@H]1NC(=O)c2ccc(-c3ccc(N4CCN(C(=O)c5ccc(C(=O)N6CCN(c7ccc(-c8ccc9cc8CNC(=O)[C@@H]8CCCN8[C@H](C(=O)NC(C)(C)C)[C@H](C)NC(=O)[C@H]([C@@H](C)O)NC(=O)[C@H](CC(=O)O)NC(=O)[C@H](CC(C)C)NC9=O)cc7)CC6)s5)CC4)cc3)c(c2)CNC(=O)[C@@H]2CCCN2[C@H](C(=O)NC(C)(C)C)[C@H](C)NC(=O)[C@H]([C@@H](C)O)NC(=O)[C@H](CC(=O)O)NC1=O [Compound 470],81

# From US11713338B2, “Cyclic peptides multimers targeting α-4-β-7 integrin” (priority 2016, dated 2023)
